Some test systems named below: KM12 colon; SK-MEL-28 melanoma; NCI-H522 lung; ACHN renal; UACC-257 melanoma; A549 NSCLC; MALME-3M melanoma; HOP-92 NSCLC; HCT-116 colon; OVCAR-5 ovarian; SK-OV-3 ovarian; SF-539 CNS; IGROV1 ovarian; MOLT-4 leukemia.
Common to all, as to assay: growth of human tumour cells (NCI), 48 h

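The compound was tested at five concentrations on cells cultured in 96-well plates, with a 48-hour exposure period. The concentration for full growth arrest is given as TGI.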 Where only a bound is given, the exact number is not on record here.

On to `CN1NC(c2ccccc2)=C(C#N)C(=O)CC1c1ccc(Br)cc1` (stereo not given), for which the TGI in the experiment on KM12 colon was greater than 100 µM; in the experiment on SK-MEL-28 melanoma, greater than 100 µM; with NCI-H522 lung it was 53.7 µM; in the experiment on ACHN renal, greater than 100 µM; with UACC-257 melanoma, greater than 100 µM; in the experiment on A549 NSCLC, greater than 100 µM. The TGI is greater than 100 µM in the experiment with MALME-3M melanoma; greater than 100 µM in the experiment with HOP-92 NSCLC; greater than 100 µM in the experiment on HCT-116 colon; 73.7 µM in the experiment on OVCAR-5 ovarian; greater than 100 µM with SK-OV-3 ovarian.

Consider `OC12c3ccccc3C1CCCCCC21OCCCO1` (stereo not given), for which the TGI in the experiment on KM12 colon, with SK-MEL-28 melanoma, with NCI-H522 lung, in the experiment with ACHN renal, in the experiment on UACC-257 melanoma and in the experiment on A549 NSCLC was greater than 100 µM each time. The TGI in the experiment on MALME-3M melanoma, with HCT-116 colon, in the experiment on SF-539 CNS, in the experiment on OVCAR-5 ovarian, with IGROV1 ovarian and with MOLT-4 leukemia was greater than 100 µM each time. In the experiment with SK-OV-3 ovarian, this compound yielded a TGI greater than 100 µM.

`COc1cc2c(c(OC)c1OC)-c1ccc(SC)c(=O)cc1C(CC(=O)Oc1cccc(F)c1)C2` (stereo not given): the TGI with KM12 colon was 1.14 µM; in the experiment on SK-MEL-28 melanoma it was greater than 100 µM; in the experiment with NCI-H522 lung, 0.241 µM; in the experiment on ACHN renal, greater than 100 µM; with UACC-257 melanoma it was greater than 100 µM; with A549 NSCLC it was greater than 100 µM. The TGI was greater than 100 µM with MALME-3M melanoma; greater than 81.3 µM in the experiment with HOP-92 NSCLC; 1.06 µM in the experiment with HCT-116 colon; 0.387 µM in the experiment with SF-539 CNS; greater than 100 µM in the experiment on OVCAR-5 ovarian; greater than 100 µM with IGROV1 ovarian. Besides, the TGI is greater than 55.2 µM in the experiment on MOLT-4 leukemia and 16.1 µM in the experiment on SK-OV-3 ovarian.

For the compound `C/C(O)=C(\C=NC(=S)c1ccncc1)C(=O)Nc1ccccc1C`, the TGI in the experiment with KM12 colon, in the experiment on SK-MEL-28 melanoma, with ACHN renal, in the experiment with UACC-257 melanoma, with A549 NSCLC and in the experiment on HOP-92 NSCLC was greater than 100 µM each time. For the same compound, the TGI in the experiment with HCT-116 colon, with SF-539 CNS, with OVCAR-5 ovarian, in the experiment with IGROV1 ovarian and with SK-OV-3 ovarian was greater than 100 µM throughout.

As to `O=C(c1ccco1)N(C(=S)N1CCN(c2ccccn2)CC1)c1ccccc1`, the TGI in the experiment with KM12 colon, in the experiment on SK-MEL-28 melanoma, in the experiment with NCI-H522 lung, in the experiment on ACHN renal, in the experiment with UACC-257 melanoma and with A549 NSCLC was greater than 100 µM in each case. Also, the TGI with MALME-3M melanoma, with HOP-92 NSCLC, with HCT-116 colon, with SF-539 CNS, in the experiment with OVCAR-5 ovarian and with IGROV1 ovarian was greater than 100 µM each time. Also, the TGI in the experiment with MOLT-4 leukemia and in the experiment on SK-OV-3 ovarian was greater than 100 µM in each case.

On to `CC(=O)NC1=C(N)C(=O)c2ccccc2C1=O`, for which the TGI in the experiment with KM12 colon was greater than 100 µM; in the experiment on NCI-H522 lung, greater than 100 µM; in the experiment on ACHN renal, greater than 100 µM; in the experiment on UACC-257 melanoma it was greater than 100 µM; in the experiment on A549 NSCLC, greater than 100 µM; in the experiment with MALME-3M melanoma, 50.4 µM. Further, the TGI was greater than 100 µM in the experiment on HOP-92 NSCLC; 35 µM in the experiment with HCT-116 colon; greater than 100 µM with SF-539 CNS; greater than 100 µM in the experiment on OVCAR-5 ovarian; greater than 100 µM with IGROV1 ovarian; greater than 100 µM with MOLT-4 leukemia. Also, the TGI in the experiment with SK-OV-3 ovarian was greater than 100 µM.

With `COC(=O)CCC(=O)N1CC1C` (stereo not given), the TGI with KM12 colon, in the experiment on SK-MEL-28 melanoma, in the experiment on NCI-H522 lung, with ACHN renal, in the experiment on UACC-257 melanoma and in the experiment with A549 NSCLC was greater than 100 µM throughout. Also, the TGI with MALME-3M melanoma, with HOP-92 NSCLC, with HCT-116 colon, with SF-539 CNS, in the experiment on OVCAR-5 ovarian and in the experiment on IGROV1 ovarian was greater than 100 µM each time. Besides, the TGI in the experiment with MOLT-4 leukemia and in the experiment with SK-OV-3 ovarian was greater than 100 µM each time.

As to `OC12CCC3(O)c4ccccc4C3C1c1ccccc12` (stereo not given), the TGI in the experiment on KM12 colon, in the experiment on SK-MEL-28 melanoma, in the experiment on NCI-H522 lung, in the experiment on ACHN renal, with UACC-257 melanoma and with A549 NSCLC was greater than 100 µM throughout. For the same compound, the TGI with MALME-3M melanoma, with HCT-116 colon, with MOLT-4 leukemia and in the experiment on SK-OV-3 ovarian was greater than 100 µM throughout.

Consider `CCn1c(CSc2nc(-c3ccccc3)c(-c3ccccc3)[nH]2)n[nH]c1=S`, for which the TGI with KM12 colon, in the experiment on SK-MEL-28 melanoma, with NCI-H522 lung, in the experiment with ACHN renal, in the experiment with UACC-257 melanoma and in the experiment on A549 NSCLC was greater than 100 µM throughout. The TGI with MALME-3M melanoma, with HOP-92 NSCLC, with HCT-116 colon, in the experiment with SF-539 CNS, in the experiment with OVCAR-5 ovarian and in the experiment with IGROV1 ovarian was greater than 100 µM in each case. The TGI in the experiment on MOLT-4 leukemia and in the experiment on SK-OV-3 ovarian was greater than 100 µM in each case.

Turning to `C=CCn1c(=N)/c(=C(\N)O)s/c1=C1/SC(=S)N(c2ccc(C)cc2)C1=O`, the TGI with KM12 colon, in the experiment with SK-MEL-28 melanoma, with NCI-H522 lung, with ACHN renal, in the experiment on UACC-257 melanoma and in the experiment on A549 NSCLC was greater than 100 µM throughout. Besides, the TGI with MALME-3M melanoma, with HOP-92 NSCLC, in the experiment with HCT-116 colon, with SF-539 CNS, in the experiment on OVCAR-5 ovarian and in the experiment with IGROV1 ovarian was greater than 100 µM in each case. The TGI with MOLT-4 leukemia and in the experiment with SK-OV-3 ovarian was greater than 100 µM in each case.

Regarding `COc1cc(C2c3cc4c(cc3[C@@H](N(C)c3ccc(N(C)C)cc3)C3COC(=O)C23)OCO4)cc(OC)c1O` (stereo not given in full), the TGI in the experiment with KM12 colon was 21.5 µM; with SK-MEL-28 melanoma it was 27.3 µM; with NCI-H522 lung it was 0.553 µM; in the experiment on ACHN renal it was 18.8 µM; in the experiment on UACC-257 melanoma, 18 µM; in the experiment with HOP-92 NSCLC, 36.8 µM. Also, the TGI with HCT-116 colon was determined as 14.8 µM; in the experiment with SF-539 CNS, 0.638 µM; with OVCAR-5 ovarian, 31.3 µM; in the experiment with IGROV1 ovarian, 31.5 µM; with MOLT-4 leukemia, 25.8 µM; with SK-OV-3 ovarian it was 43 µM.
